According to patent US4925853A, “Benzimidazoles as 5-lipoxygenase inhibitors” (Beecham Group PLC, priority 1984, dated 1990):
Where a name gives a salt, the structure may show the parent alone.

Assays:
SRS-A release = assay: Rat passive peritoneal anaphylaxis (PPA), SRS-A release (Method D); format: in vivo; details: final concentration of 2×10^-4 M, intraperitoneal
From the text: Rat passive peritoneal anaphylaxis (PPA) The method is essentially similar to that described previously by Ross et al (Ross, Janet W., Smith, H. and Spicer, Barbara A. Increased vascular permeability during passive peritoneal anaphylaxis in the rat. Int. Arch. Allergy appl. Innum. 51, 226, 1976.) Charles River Sprague Dawley male rats of 225-275 g and Dunkin Hartley male white guinea pigs of 300-700 g were used. Charles River Sprague Dawley male rats of 225-275 g were given intraperitoneal injections of 0.5 ml of either Bordetella pertussis vaccine (4×10^10 organisms/ml; Burroughs Wellcome, London) or Pertussis vaccine absorbed (not less than 41.u. B. pertussis antigen with aluminium hydroxide; The Lister Institute Elstree, England), and subcutaneous injections of 0.5 ml of an emulsion of 100 mg of ovalbumin (chicken egg albumin; crystallised and lyophilised, grade V, Sigma, London) in 2 ml of isotonic saline and 3 ml of incomplete Freund's adjuvant. The rats were bled by cardiac puncture, under ether anaesthesia,on day 18, the blood was pooled and the serum separated, stored at -20° C. and thawed only once before use. The serum produced 72 hour passive cutaneous anaphylaxis activity in recipient rats to a dilution of 1:64 which was decreased to a dilution of less than 1:2 by heating at 56° C. for 4 hours. Rats were given intraperitoneal injections of 2 ml of a 1:5 dilution of the rat anti-serum in isotonic saline. Two hours later 0.3 ml of 5% solution of Pontamine Sky Blue (Raymond A. Lamb, London) in isotonic saline was injected intraveneously, followed by an intraperitoneal injection of the test compound in 1 ml of saline; (control rats received 1 ml of saline); followed 2.5 minutes later by an intraperitoneal injection of 5 ml of a Tyrode solution containing 50 μg/ml heparin and 0.4 mg/ml of ovalbumin. The concentrations of the compounds were quoted as that in the 6 ml of fluid injected intraperitoneally. […]

[1] = test system: carrageenin-induced pleurisy in the rat; assay: Carrageenin-induced pleurisy in the rat (Method C); format: in vivo; details: 1 hour before and 24 and 48 hours after carrageenin
Procedure: CARRAGEENIN-INDUCED PLEURISY IN THE RAT This model of monocyte accumulation is based on the method of R. Vinegar, J. F. Truax, J. […] [Federation Proceedings 41, 2588-2595, 1982]. 0.2 ml of a 2.0% solution of λ-carrageenin (Viscarin 402) in saline was injected intrapleurally in anaesthetised rats (wt. approx. 175-200 g). […] Exudate volume was calculated from the dilution of the phenol red injected, determined spectrophotometrically (560 nm) and cellular content estimated with a DNA assay [[…]. and Wollenberger A. Anal. Biochem. 77, 464-470, 1977]. This test is used to indicate anti-inflammatory activity against carrageenin-induced pleurisy in the rat.

5-lipoxygenase enzyme = assay: RBL-1 5-Lipoxygenase Screen (Method B), cell free; format: biochemical; details: 2 min
Procedure: RBL-1 5-Lipoxygenase Screen
5-Lipoxygenase enzyme was prepared as a 10,000 g supernatant from RBL-1 cells by the method of Jakschik [Jakschik, B. A., F. F. Sun, L. M. Lee, and M. M. Steinhoff, 1980, Biochem. Biophys. Res. Comm. 95, 103]. The 10,000 g supernatant was diluted with homogenization buffer to the equivalent of 1.5-2.5×10^7 cells. ml^-1 and made 2 mM with respect to CaCl2. Aliquots of 0.5 ml were then dispensed into tubes, and incubated at 29° C. with 5 μl ethanol or compound in ethanol at the desired concentration for 2 min. Then […] arachidonic acid was added in buffer to give final concentration of 6.3 μM and 0.2 μCi per incubation, and the reaction continued at 29° C. for 2 min. The reaction was terminated by adding 1 ml of acetone and cooling on ice, 0.5 ml of ice-cold saline and 10 μl of 2N formic acid were added, and the mixture was extracted with 2×2 ml of chloroform. The extract was stored under N2 at -20° C. until analysis by chromatography.
This test is used to show inhibition of the 5-lipoxygenase enzyme in a mammalian RBL-1 cell free 5-lipoxygenase assay.

[2] = test system: development of arthritis in the rat adjuvant arthritis model; assay: Rat Adjuvant Arthritis Model (Method A); format: in vivo; details: 25 mg/kg (i.p.)
Procedure: Rat Adjuvant Arthritis Model
The test is as described by Newbould, Brit. J. Pharmacol., 1963, 21, 127-136.
It is used to indicate anti-rheumatic activity as shown by inhibiting the development of arthritis in the rat adjuvant arthritis model. The compound of Example 1 is active at a concentration of 25 mg/kg (i.p.)

SMILES	% inhibition of SRS-A release compared to controls (SRS-A release) [%]	anti-inflammatory activity against carrageenin-induced pleurisy ([1]; 25 mg/kg (p.o.))	further results
COc1ccc(Cc2nc3c(C)ccc(O)c3[nH]2)cc1.Cl [Example 12, 2-(4'-Methoxybenzyl)-4-hydroxy-7-methylbenzimidazole hydrochloride]	58	active	
Cc1ccc(Cc2nc3c(C)ccc(O)c3[nH]2)cc1 [Example 10, 2-(4'-Methylbenzyl)-4-hydroxy-7-methylbenzimidazole]		active	
COc1cc(Cc2nc3c(C)ccc(O)c3[nH]2)cc(OC)c1OC.Cl [Example 25, 2-(3',4',5'-Trimethoxybenzyl)-4-hydroxy-7-methylbenzimidazole hydrochloride]	59		
Cc1ccc(O)c2[nH]c(Cc3ccccc3)nc12 [Example 1, 2-Benzyl-4-hydroxy-7-methylbenzimidazole]			percentage inhibition (5-lipoxygenase; formation of 5-HETE and 5,12-diHETE) (5-lipoxygenase enzyme; 0.5 μM concentration, p<0.01): 36.0 percentage; percentage inhibition (5-lipoxygenase; formation of 5-HETE and 5,12-diHETE) (5-lipoxygenase enzyme; 5 μM concentration, p<0.001): 78.1 percentage; anti-rheumatic activity: inhibition of the development of arthritis in the rat adjuvant arthritis model [2]: active
Cc1ccc(O)c2[nH]c(CCCCCC(=O)O)nc12 [Example 18, 6-(4-Hydroxy-7-methyl-benzimidazol-2-yl)-hexanoic acid hydrochloride hydrate (3:3:1)]			anti-inflammatory activity against carrageenin-induced pleurisy ([1]; 12 mg/kg (i.p)): active
COc1ccc(Cc2nc3c(C)ccc(O)c3[nH]2)cc1OC.Cl [Example 26, 2-(3',4'-Dimethoxybenzyl)-4-hydroxy-7-methylbenzimidazole hydrochloride]	55		
